Assay results reported in article PMC12135181, “The mechanism of lineage-specific tRNA recognition by bacterial tryptophanyl-tRNA synthetase and its implications for inhibitor discovery” (Nucleic Acids Research, 2025).
Read-outs that look alike come from different tables or passages of the source.

Key:
EcTrpRS [1] = target: T1, EcTrpRS (Escherichia coli, UniProt P00954); type: binding
T1 construct: hexahistidine tag (C); made in house; host or cells: Escherichia coli BL21(DE3)

HcTrpRS = target: T2, HcTrpRS (Homo sapiens, UniProt P23381); experiment: Isothermal titration calorimetry (ITC) to HcTrpRS; type: binding
T2 construct: made in house
T2 sequence (P23381 1-471): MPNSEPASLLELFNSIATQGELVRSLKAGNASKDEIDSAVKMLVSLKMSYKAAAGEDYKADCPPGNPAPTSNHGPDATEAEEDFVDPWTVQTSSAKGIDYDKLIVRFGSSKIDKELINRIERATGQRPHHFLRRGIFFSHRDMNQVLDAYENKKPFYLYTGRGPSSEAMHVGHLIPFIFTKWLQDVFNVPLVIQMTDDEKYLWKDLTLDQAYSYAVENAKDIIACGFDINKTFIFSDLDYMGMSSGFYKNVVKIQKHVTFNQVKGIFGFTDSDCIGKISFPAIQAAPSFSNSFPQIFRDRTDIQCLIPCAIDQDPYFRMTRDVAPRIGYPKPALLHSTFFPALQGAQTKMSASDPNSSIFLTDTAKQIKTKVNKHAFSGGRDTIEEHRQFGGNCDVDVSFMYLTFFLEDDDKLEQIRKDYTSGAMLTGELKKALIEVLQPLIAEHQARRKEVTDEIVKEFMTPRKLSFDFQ
Protocol: (§1) The binding affinities of various compounds to EcTprRS were measured using a MicroCal VP-ITC microcalorimeter (MicroCal). Compounds at a concentration of 200 μM were titrated into 20 μM of EcTrpRS in PBS (phosphate buffered saline) buffer (137 mM NaCl, 2.7 mM KCl, 8 mM Na2HPO4, and 2 mM KH2PO4). The titration assays were conducted at 26°C, beginning with an initial injection of 0.4 μl, followed by 18 injections of 2 μl each, with an interval of 120 s between each injection. The dissociation constants (Kd) were calculated by fitting the calorimetric data to a one-site binding model using MicroCal PEAQ-ITC analysis software, with the reported errors in Kd values representing the curve fitting errors. All isothermal titration calorimetry (ITC) experiments were repeated at least twice, and the titrations of compounds to HcTrpRS were also performed for comparison.

EcTrpRS [2] = target: T1, EcTrpRS; experiment: Isothermal titration calorimetry (ITC) to EcTrpRS; type: binding
Protocol: as §1

EcTrpRS [3] = target: T1, EcTrpRS; experiment: Pyrophosphate (PPi) production assay; type: biochemical; settings: 10 μM compound, average of three; for inhibition at 10 µM: read-out: Inhibitory rate of PPi production activity of EcTrpRS
Protocol: The inhibitory effects of various compounds of EcTrpRS were evaluated using a pyrophosphate (PPi) production assay. EcTrpRS was incubated with 10 μM (in 0.1% DMSO) of each compound for 10 min at room temperature. […] The mixture was incubated at 26°C for 45 min, after which 40 μl of malachite green reagent was added to terminate the reaction and develop color. Following an additional incubation of 10 min, the absorbance (A) was measured at 640 nm using a Synergy H1 microplate reader (BioTek). The absorbance of the reaction without adding a compound was designated as A1, the absorbance of the reaction without adding EcTrpRS was A0, and the absorbance of the reaction with the addition of a compound was AC. The inhibitory rates of compounds on enzyme activity were calculated as (A1 − AC)/(A1 − A0) × 100%. Each reaction was performed in triplicate.

[4] = no tRNA, no ATP, 26°C, PBS, read-out: Kd for binding to EcTrpRS (ITC)

Row | Compound | Change of ΔTm of EcTrpRS with compound after addition of tRNA^Trp (EcTrpRS [1]) | inhibition at 10 µM (EcTrpRS [3]) [%] | Inhibitory rate of PPi production activity of EcTrpRS (EcTrpRS [3]; 10 µM) | also measured
1 | CC#CC(=O)N1CC[C@@H](n2c(=O)n(-c3ccc(Oc4ccccc4)cc3)c3c(N)ncnc32)C1 [tirabrutinib] | reduced | 50 | – | Binding affinity for HcTrpRS (ITC) (HcTrpRS): no binding affinities; Kd (EcTrpRS [2]; [4]): 4800 ± 200 nM
2 | C=CC(=O)N1CCC[C@H](n2c(=O)n(-c3ccc(Oc4ccccc4)cc3)c3c(N)ncnc32)C1 [ONO-4059 analogue] | reduced | 38 | – | –
3 | N[C@@H](Cc1c[nH]c2ccccc12)C(=O)O [L-Trp, tryptophan] | – | – | – | Binding to EcTrpRS (ITC) (EcTrpRS [2]; in the presence of 200 μM N-piperidine ibrutinib): no binding; Kd (EcTrpRS [2]; [4]): 40200 ± 4800 nM
4 | C=CC(=O)N1CCC[C@@H](n2nc(-c3ccc(Oc4ccccc4)cc3)c3c(N)ncnc32)C1 [ibrutinib] | – | 12 | – | ΔTm of EcTrpRS (EcTrpRS [1]): did not produce significant changes; Inhibitory rate of PPi production activity of EcTrpRS (EcTrpRS [3]): nor did they exhibit considerable inhibitory rates
5 | Nc1ncnc2n[nH]c(-c3ccc(Oc4ccccc4)cc3)c12 [IBT4A] | – | – | nor did they exhibit considerable inhibitory rates | Inhibitory rate of PPi production activity of EcTrpRS (EcTrpRS [3]; listed as 8, 10 µM): < 5%
6 | Nc1ncnc2c1c(-c1ccc(Oc3ccccc3)cc1)nn2C1CCCC1 [PCI-29732] | – | – | nor did they exhibit considerable inhibitory rates | Inhibitory rate of PPi production activity of EcTrpRS (EcTrpRS [3]; listed as 7, 10 µM): < 5%
7 | C=CC(=O)N1CCC[C@@H](n2c(=O)n(-c3ccc(Oc4ccccc4)cc3)c3c(N)nccc32)C1 [tolebrutinib] | reduced | 19 | – | –
8 | CN=C1NC(=O)[C@H]([C@H](C)c2c[nH]c3ccccc23)O1 [indolmycin] | – | 93 | – | Kd (EcTrpRS [2]; in the absence of ATP, read-out: Kd (binding affinity) to EcTrpRS (ITC)): 804 ± 54 nM; Kd (EcTrpRS [2]; in the presence of 1 mM ATP, read-out: Kd (binding affinity) to EcTrpRS (ITC)): 503 ± 31 nM
9 | Nc1ncnc2c1c(-c1ccc(Oc3ccccc3)cc1)nn2[C@@H]1CCCNC1 [IBT6A] | – | – | nor did they exhibit considerable inhibitory rates | Inhibitory rate of PPi production activity of EcTrpRS (EcTrpRS [3]; listed as 6, 10 µM): 9%
